Drawing on patent US20240228504A1, “SUBSTITUTED TRICYCLIC AMIDES, ANALOGUES THEREOF, AND METHODS USING SAME” (Arbutus Biopharma Corporation, priority 2020, published 2024), this text covers EC50 for 29 compounds.

The assay deals with HBV rcDNA in HepDE19 cells. In words: HepDE19 assay with bDNA quantitation of HBV rcDNA. The class given is cell-based, hepatitis B virus. The conditions noted are these: Hepatitis B virus, HepDE19, HepDE19 assay, inhibition of rcDNA formation, bDNA quantitation; read-out: DE-19bDNA EC50.
In the case of `CN(C(=O)c1ccc(S(C)(=O)=O)cc1)[C@@H]1COCc2[nH]c(=O)c3cc(F)c(F)cc3c21` [Compound 295, (S)-N-(8,9-Difluoro-6-oxo-1,4,5,6-tetrahydro-2H-pyrano[3,4-c]isoquinolin-1-yl)-N-methyl-4-(methylsulfonyl)benzamide], the EC50 is 350 nM.

Turning to `CNS(=O)(=O)c1cccc(C(=O)N(C)[C@@H]2COCc3[nH]c(=O)c4cc(F)c(F)cc4c32)c1` [Compound 296, (S)-N-(8,9-Difluoro-6-oxo-1,4,5,6-tetrahydro-2H-pyrano[3,4-c]isoquinolin-1-yl)-N-methyl-3-(N-methylsulfamoyl)benzamide], the EC50 worked out at 890 nM.

For `CN(C(=O)c1cccc(NS(C)(=O)=O)c1)[C@@H]1COCc2[nH]c(=O)c3cc(F)c(F)cc3c21` [Compound 297, (S)-N-(8,9-Difluoro-6-oxo-1,4,5,6-tetrahydro-2H-pyrano[3,4-c]isoquinolin-1-yl)-N-methyl-3-(methylsulfonamido)benzamide], the EC50 turned out to be 21000 nM.

For the compound `CN(C(=O)c1cccc(S(C)(=O)=O)c1)[C@@H]1COCc2[nH]c(=O)c3cc(F)c(F)cc3c21` [Compound 298, (S)-N-(8,9-Difluoro-6-oxo-1,4,5,6-tetrahydro-2H-pyrano[3,4-c]isoquinolin-1-yl)-N-methyl-3-(methylsulfonyl)benzamide], the EC50 was 9000 nM.

On to `CN(C(=O)c1ccc2cncn2c1)[C@@H]1COCc2[nH]c(=O)c3cc(F)c(F)cc3c21` [Compound 299, (S)-N-(8,9-Difluoro-6-oxo-1,4,5,6-tetrahydro-2H-pyrano[3,4-c]isoquinolin-1-yl)-N-methylimidazo[1,5-a]pyridine-6-carboxamide], for which the EC50 worked out at 360 nM.

For `CC(C)C(=O)OC1OC[C@@H](N(C)C(=O)c2cc3cc(F)c(F)cc3[nH]2)c2c1[nH]c(=O)c1cc(F)c(F)cc21` (stereo partly drawn) [Compound 300, (1S)-1-(5,6-Difluoro-N-methyl-1H-indole-2-carboxamido)-8,9-difluoro-6-oxo-1,4,5,6-tetrahydro-2H-pyrano[3,4-c]isoquinolin-4-yl isobutyrate], the EC50 came out at 10 nM.

Regarding `CN(C(=O)c1cc(F)cc(Oc2ccccc2)c1)[C@@H]1COCc2[nH]c(=O)c3cc(F)c(F)cc3c21` [Compound 303, (S)-N-(8,9-Difluoro-6-oxo-1,4,5,6-tetrahydro-2H-pyrano[3,4-c]isoquinolin-1-yl)-3-fluoro-N-methyl-5-phenoxybenzamide], the EC50 came to 6700 nM.

With `CN(C(=O)c1ccc2nccn2c1)[C@@H]1COCc2[nH]c(=O)c3cc(F)c(F)cc3c21` [Compound 306, (S)-N-(8,9-Difluoro-6-oxo-1,4,5,6-tetrahydro-2H-pyrano[3,4-c]isoquinolin-1-yl)-N-methylimidazo[1,2-a]pyridine-6-carboxamide], the EC50 came to 420 nM.

With `CN(C(=O)c1cc2ccncc2[nH]1)[C@@H]1COCc2[nH]c(=O)c3cc(F)c(F)cc3c21` [Compound 307, (S)-N-(8,9-Difluoro-6-oxo-1,4,5,6-tetrahydro-2H-pyrano[3,4-c]isoquinolin-1-yl)-N-methyl-1H-pyrrolo[2,3-c]pyridine-2-carboxamide], the EC50 worked out at 200 nM.

`CN(C(=O)c1cc2cnccc2[nH]1)[C@@H]1COCc2[nH]c(=O)c3cc(F)c(F)cc3c21` [Compound 308, (S)-N-(8,9-Difluoro-6-oxo-1,4,5,6-tetrahydro-2H-pyrano[3,4-c]isoquinolin-1-yl)-N-methyl-1H-pyrrolo[3,2-c]pyridine-2-carboxamide]: the EC50 worked out at 610 nM.

Turning to `CN(C(=O)c1cc2cnc(Cl)cc2[nH]1)[C@@H]1COCc2[nH]c(=O)c3cc(F)c(F)cc3c21` [Compound 309, (S)-6-chloro-N-(8,9-difluoro-6-oxo-1,4,5,6-tetrahydro-2H-pyrano[3,4-c]isoquinolin-1-yl)-N-methyl-1H-pyrrolo[3,2-c]pyridine-2-carboxamide], the EC50 is 50 nM.

`CN(C(=O)c1cc2cc(F)ncc2[nH]1)[C@@H]1COCc2[nH]c(=O)c3cc(F)c(F)cc3c21` [Compound 310, (S)-N-(8,9-Difluoro-6-oxo-1,4,5,6-tetrahydro-2H-pyrano[3,4-c]isoquinolin-1-yl)-5-fluoro-N-methyl-1H-pyrrolo[2,3-c]pyridine-2-carboxamide]: the EC50 is 30 nM.

With `CN(C(=O)c1ccc2cc(C(F)(F)F)cn2c1)[C@@H]1COCc2[nH]c(=O)c3cc(F)c(F)cc3c21` [Compound 311, (S)-N-(8,9-Difluoro-6-oxo-1,4,5,6-tetrahydro-2H-pyrano[3,4-c]isoquinolin-1-yl)-N-methyl-2-(trifluoromethyl)indolizine-6-carboxamide], the EC50 turned out to be 140 nM.

As for `CN(C(=O)c1cc2c(Br)cncc2[nH]1)[C@@H]1COCc2[nH]c(=O)c3cc(F)c(F)cc3c21` [Compound 312, (S)-4-Bromo-N-(8,9-difluoro-6-oxo-1,4,5,6-tetrahydro-2H-pyrano[3,4-c]isoquinolin-1-yl)-N-methyl-1H-pyrrolo[2,3-c]pyridine-2-carboxamide], the EC50 turned out to be 30 nM.

Take `CN(C(=O)c1ccnc(C(F)F)c1)[C@@H]1COCc2[nH]c(=O)c3cc(F)c(F)cc3c21` [Compound 313, (S)-N-(8,9-Difluoro-6-oxo-1,4,5,6-tetrahydro-2H-pyrano[3,4-c]isoquinolin-1-yl)-2-(difluoromethyl)-N-methylisonicotinamide]: the EC50 was 170 nM.

`CN(C(=O)c1cc2occc2[nH]1)[C@@H]1COCc2[nH]c(=O)c3cc(F)c(F)cc3c21` [Compound 314, (S)-N-(8,9-Difluoro-6-oxo-1,4,5,6-tetrahydro-2H-pyrano[3,4-c]isoquinolin-1-yl)-N-methyl-4H-furo[3,2-b]pyrrole-5-carboxamide]: the EC50 was 150 nM.

On to `CN(C(=O)c1cc2cc(F)c(F)cc2[nH]1)[C@@H]1COCc2c1c1cc(F)c(F)cc1c(=O)n2CCO` [Compound 315, (S)-N-(8,9-Difluoro-5-(2-hydroxyethyl)-6-oxo-1,4,5,6-tetrahydro-2H-pyrano[3,4-c]isoquinolin-1-yl)-5,6-difluoro-N-methyl-1H-indole-2-carboxamide], for which the EC50 came out at 30 nM.

`CN(C(=O)c1cc2cc(F)c(F)cc2[nH]1)[C@@H]1COCc2c1c1cc(F)c(F)cc1c(=O)n2CCN` [Compound 316]: the EC50 amounted to 390 nM.

With `CN(C(=O)c1cc2cc(F)c(F)cc2[nH]1)[C@@H]1COCc2nc(OCCO)c3cc(F)c(F)cc3c21` [Compound 317, (S)-N-(8,9-Difluoro-6-(2-hydroxyethoxy)-1,4-dihydro-2H-pyrano[3,4-c]isoquinolin-1-yl)-5,6-difluoro-N-methyl-1H-indole-2-carboxamide], the EC50 worked out at 10 nM.

For `COC1OC[C@@H](N(C)C(=O)c2cc3cc(F)c(F)cc3[nH]2)c2c1[nH]c(=O)c1cc(F)c(F)cc21` (stereo partly drawn) [Compound 320, N-((1S)-8,9-Difluoro-4-methoxy-6-oxo-1,4,5,6-tetrahydro-2H-pyrano[3,4-c]isoquinolin-1-yl)-5,6-difluoro-N-methyl-1H-indole-2-carboxamide], the EC50 is 30 nM.

Regarding `CN(C(=O)c1cc2cc(F)c(F)cc2[nH]1)[C@@H]1COC(=O)c2[nH]c(=O)c3cc(F)c(F)cc3c21` [Compound 321, (S)-N-(8,9-Difluoro-4,6-dioxo-1,4,5,6-tetrahydro-2H-pyrano[3,4-c]isoquinolin-1-yl)-5,6-difluoro-N-methyl-1H-indole-2-carboxamide], the EC50 was found to be 10 nM.

As for `CN(C(=O)c1cccc(Oc2cccc(F)c2)c1)[C@@H]1COCc2[nH]c(=O)c3cc(F)c(F)cc3c21` [Compound 322, (S)-N-(8,9-Difluoro-6-oxo-1,4,5,6-tetrahydro-2H-pyrano[3,4-c]isoquinolin-1-yl)-3-(3-fluorophenoxy)-N-methylbenzamide], the EC50 is 8100 nM.

With `COc1ccc2[nH]c(C(=O)N(C)[C@@H]3COCc4[nH]c(=O)c5cc(F)c(F)cc5c43)cc2c1` [Compound 324, (S)-N-(8,9-Difluoro-6-oxo-1,4,5,6-tetrahydro-2H-pyrano[3,4-c]isoquinolin-1-yl)-5-methoxy-N-methyl-1H-indole-2-carboxamide], the EC50 was 70 nM.

As for `CN(C(=O)c1cc2cc(Cl)ccc2[nH]1)[C@@H]1COCc2[nH]c(=O)c3cc(F)c(F)cc3c21` [Compound 325, (S)-5-chloro-N-(8,9-Difluoro-6-oxo-1,4,5,6-tetrahydro-2H-pyrano[3,4-c]isoquinolin-1-yl)-N-methyl-1H-indole-2-carboxamide], the EC50 came to 20 nM.

With `Cc1ccc2[nH]c(C(=O)N(C)[C@@H]3COCc4[nH]c(=O)c5cc(F)c(F)cc5c43)cc2c1` [Compound 326, (S)-N-(8,9-Difluoro-6-oxo-1,4,5,6-tetrahydro-2H-pyrano[3,4-c]isoquinolin-1-yl)-N,5-dimethyl-1H-indole-2-carboxamide], the EC50 turned out to be 2500 nM.

On to `CN(C(=O)c1cc2cc(OC(F)(F)F)ccc2[nH]1)[C@@H]1COCc2[nH]c(=O)c3cc(F)c(F)cc3c21` [Compound 327, (S)-N-(8,9-Difluoro-6-oxo-1,4,5,6-tetrahydro-2H-pyrano[3,4-c]isoquinolin-1-yl)-N-methyl-5-(trifluoromethoxy)-1H-indole-2-carboxamide], for which the EC50 is 1200 nM.

On to `CCc1ccc2[nH]c(C(=O)N(C)[C@@H]3COCc4[nH]c(=O)c5cc(F)c(F)cc5c43)cc2c1` [Compound 328, (S)-N-(8,9-Difluoro-6-oxo-1,4,5,6-tetrahydro-2H-pyrano[3,4-c]isoquinolin-1-yl)-5-ethyl-N-methyl-1H-indole-2-carboxamide], for which the EC50 turned out to be 3100 nM.

Consider `COc1cccc2[nH]c(C(=O)N(C)[C@@H]3COCc4[nH]c(=O)c5cc(F)c(F)cc5c43)cc12` [Compound 329, (S)-N-(8,9-Difluoro-6-oxo-1,4,5,6-tetrahydro-2H-pyrano[3,4-c]isoquinolin-1-yl)-4-methoxy-N-methyl-1H-indole-2-carboxamide], for which the EC50 came to 260 nM.

For `Cc1cccc2[nH]c(C(=O)N(C)[C@@H]3COCc4[nH]c(=O)c5cc(F)c(F)cc5c43)cc12` [Compound 330, (S)-N-(8,9-Difluoro-6-oxo-1,4,5,6-tetrahydro-2H-pyrano[3,4-c]isoquinolin-1-yl)-N,4-dimethyl-1H-indole-2-carboxamide], the EC50 worked out at 10 nM.
